The values below come from patent publication US5352704A, “Guanidinobenzene derivatives” (priority 1989, dated 1994).

Data set [1] concerns human influenza virus A/WSN. Briefly: Inhibitory action on plaque formation by human influenza virus. The note with it: unidentified influenza virus, MDCK, 72 h, read-out: Inhibition ratio (%) of plaque formation. Type of data set: cell-based, human influenza virus A/WSN (in MDCK dog kidney cells).
Data set [2] has as its system influenza virus A/Udron/72 (H3N2). Type of data set: in vivo, mole hamster. The following applies: 10.0 mg/ml, 50 μl intranasal at 6, 11 and 24 hours after infection, 28 hours from infection, n = 5.
For data set [3] the following is noted: related art (Virology, Raven Press, pp 323-348, 1985); cited from earlier work.

Molecules are shown by their SMILES.

Consider `N=C(N)Nc1ccc(C(=O)Nc2ccc(C(=N)N)cc2)cc1` [Compound A, 4-guanidinobenzoic acid 4-amidinobenzamide.2 methanesulfonate], for which, in data set [1], the inhibition at 12.5 µg/mL was determined as 2.9%, the inhibition at 25 µg/mL worked out at 51% and the inhibition at 50 µg/mL was found to be 80.8%.
As for `N=C(N)Nc1ccc(C(=O)Nc2ccc3cc(C(=N)N)ccc3c2)cc1` [Compound B, 4-guanidinobenzoic acid 6-amidino-2-naphthylamide.2 methanesulfonate], in data set [1], the inhibition at 10 µg/mL is 31.4%, the inhibition at 20 µg/mL stood at 67.6% and the inhibition at 50 µg/mL was found to be 82.4%. Also, in data set [2] (**P < 0.01, tTest), the “% Inhibition (virus in lung)” value amounted to 99.0%. Also, the PFU/lung in data set [2] (control 4.8 ± 2.2 × 10^5) is 5.0 ± 10.0 × 10^3 PFU/lung.
Take `NC12CC3CC(CC(C3)C1)C2` [amantadine]: in data set [3], the “efficacy on frequent use” value was “the higher the frequency of use, the lower becomes efficacy” and the side effects result is recorded as “teratogenicity”.
